How the values were obtained:
[1] = particle size and BET specific surface area of lovastatin crystals; format: physicochemical; details: for d(0.9) / d(0.1) / d(0.5): particle size; for d(0.9): 90% (volume) of particles below; for Spec. Pov.: specific surface area, BET method
[2] = oral, cited from earlier work
[3] = room temperature; cited from earlier work
[4] = dissolution of lovastatin samples of varying particle size in water (Table I); format: physicochemical; details: suspension in 0.1% Tween 80 diluted 100 times
Source text: At first we have prepared three samples of lovastatin* with varying particle size and compared dissolution** of those samples in water (Table I).

Row | Compound | d(0.9) [1] [μm] | Spec. Pov. [1] [m^2/g] | time to peak concentration in blood of active form ([2]; post-dose) [h] | share of total dose that crosses the intestinal membrane [2] [%] | volume of water required to dissolve 20 mg [3] | concentration of dissolved lovastatin ([4]; time 0 min) [ng/mL] | concentration of dissolved lovastatin ([4]; time 1 min) [ng/mL] | concentration of dissolved lovastatin ([4]; time 3 min) [ng/mL] | concentration of dissolved lovastatin ([4]; time 5 min) [ng/mL] | concentration of dissolved lovastatin ([4]; time 10 min) [ng/mL] | concentration of dissolved lovastatin ([4]; time 30 min) [ng/mL] | concentration of dissolved lovastatin ([4]; time 50 min) [ng/mL] | d(0.1) [1] [μm] | d(0.5) [1] [μm]
1 | CC[C@H](C)C(=O)O[C@H]1C[C@@H](C)C=C2C=C[C@H](C)[C@H](CC[C@@H]3C[C@@H](O)CC(=O)O3)[C@H]21 [Example 5, lovastatin] | 77 | 1.3 | – | – | – | – | – | – | – | – | – | – | – | –
2 | CC[C@H](C)C(=O)O[C@H]1C[C@@H](C)C=C2C=C[C@H](C)[C@H](CC[C@@H]3C[C@@H](O)CC(=O)O3)[C@H]21 [Example 4, lovastatin] | 163 | – | – | – | – | – | – | – | – | – | – | – | – | –
3 | CC[C@H](C)C(=O)O[C@H]1C[C@@H](C)C=C2C=C[C@H](C)[C@H](CC[C@@H]3C[C@@H](O)CC(=O)O3)[C@H]21 [lovastatin] | – | – | 2.8 | 31 | about 15 litres | – | – | – | – | – | – | – | – | –
4 | CC[C@H](C)C(=O)O[C@H]1C[C@@H](C)C=C2C=C[C@H](C)[C@H](CC[C@@H]3C[C@@H](O)CC(=O)O3)[C@H]21 [Example 6, lovastatin] | 22 | – | – | – | – | – | – | – | – | – | – | – | – | –
5 | CC[C@H](C)C(=O)O[C@H]1C[C@@H](C)C=C2C=C[C@H](C)[C@H](CC[C@@H]3C[C@@H](O)CC(=O)O3)[C@H]21 [C, lovastatin] | 163 | 0.7 | – | – | – | 0 | 250 | 300 | 400 | 560 | 820 | 940 | 17 | 54
6 | CC[C@H](C)C(=O)O[C@H]1C[C@@H](C)C=C2C=C[C@H](C)[C@H](CC[C@@H]3C[C@@H](O)CC(=O)O3)[C@H]21 [B, lovastatin] | 31 | 2.2 | – | – | – | 0 | 500 | 680 | 710 | 780 | 870 | 950 | 1.4 | 7.9
7 | CC[C@H](C)C(=O)O[C@H]1C[C@@H](C)C=C2C=C[C@H](C)[C@H](CC[C@@H]3C[C@@H](O)CC(=O)O3)[C@H]21 [A, lovastatin] | 22 | 3.3 | – | – | – | 0 | 650 | 770 | 780 | 810 | 880 | 900 | 1.6 | 6

Source: US6984399B2 (Lek Pharmaceuticals d.d., priority 1999, dated 2006)
